US12268702B2, “Antitumor pharmaceutical composition comprising azvudine and chemotherapeutic agent” (HENAN GENUINE BIOTECH CO., LTD., priority 2023, dated 2025)

Experiments:
Type in all cases: in vivo
[1] = tested on: MOLT4 xenograft tumor model; test: Human acute lymphoblastic leukemia MOLT4 cell subcutaneous xenograft tumor model
Experimental: (§1) Human acute lymphoblastic leukemia cells MOLT4 (Cat. No.: ECACC-85011413) were in vitro suspended and cultured in RPMI 1640 medium containing 10% fetal bovine serum, 100 U/mL penicillin and 100 μg/mL streptomycin, in a 37° C. and 5% CO2 incubator. When the cell saturation achieved 80%-90% and the cell number reached the requirement, the cells were collected, counted and inoculated.
0.2 mL (10×10^6) of MOLT4 cells (added with Matrigel at a volume ratio of 1:1) were subcutaneously inoculated on the right back of each mouse. The grouping administration was started when the average tumor volume reached about 148 mm^3.
The changes of tumor volume and tumor weight in each group after administration of test drugs for treating SCID Beige mice with MOLT4 cell subcutaneous xenograft tumor are shown in Table 10 and Table 11.

[2] = tested on: OVCAR-8 human ovarian cancer model; test: OVCAR-8 human ovarian cancer subcutaneous xenograft tumor model; settings: azvudine 1 mg/kg, paclitaxel 15 mg/kg, avastin 10 mg/kg, combinations 1 + 15 and 1 + 10 mg/kg
Experimental: OVCAR-8 cells were cultured in RPMI1640 medium containing 10% fetal bovine serum. OVCAR-8 cells in the exponential growth phase were collected, resuspended in PBS to an appropriate concentration and mixed with Matrigel at a ratio of 1:1. The resulting mixture was used for subcutaneous inoculation of tumor in mice.
1×10^7 OVCAR-8 cells were inoculated subcutaneously on the right side of female mice. When the average tumor volume achieved 174.25 mm^3, the mice were randomly divided into groups according to tumor size.
The experimental protocols for animal experiments in this experiment were reviewed and approved by the CrownBio IACUC committee. During the experiment, the animal experiments were performed in accordance with the requirements of AAALAC. After tumor inoculation was completed, the impact of tumor growth and treatment on normal behavior of animals was routinely monitored, specifically the activity of experimental animals, food intake and water intake, body weight gain or loss (body weight was measured twice a week), eye, hair and other abnormalities. The clinical symptoms observed during the experiment were recorded in the original data. The tumor volume was calculated according to the following formula: tumor volume (mm^3)=½×(a×b^2) (where a represents long diameter and b represents short diameter).
Relative tumor proliferation rate, T/C %, refers to the percentage value of the relative tumor volume or tumor weight of the treatment group and the control group at a certain time point, which was calculated as follows: • T/C %=TRTV/CRTV×100% (TRTV: the average RTV of the treatment group; CRTV: the average RTV of the vehicle control group; RTV=Vt/V0, where V0 is the tumor volume of the animal when grouped, and Vt is the tumor volume of the animal after treatment); • or T/C %=TTW/CTW×100% (TTW: the average tumor weight of the treatment group at the end of the experiment; CTW: the average tumor weight of the vehicle control group at the end of the experiment).
Relative tumor inhibition rate, TGI (%), was calculated according to the formula as follows: TGI %=(1−T/C)×100%. (T and C are the relative tumor volumes (RTV) or tumor weights (TW) of the treatment group and the control group at a specific time point).
To compare tumor volumes of different treatment groups on a given day, first the assumption of homogeneity of variance among all groups was tested using the Bartlett test. When the p-value of Bartlett's test was not less than 0.05, whether all group means were equal was tested using one-way ANOVA. If the p-value of the one-way ANOVA was less than 0.05, pairwise comparisons among all groups were conducted using Tukey's HSD test, or pairwise comparisons between each treatment group and control group were conducted using Dunnett's t-test. When the p-value of Bartlett's test was less than 0.05, whether the medians of all groups were equal was tested using Kruskal Wallis test. If the p-value of the Kruskal Wallis test was less than 0.05, pairwise comparisons among all groups or between each treatment group and control group were conducted using Conover test, and the corresponding p-value correction was performed according to the number of groups in the multiple test.

[3] = tested on: A2058 xenograft tumor model; test: Human melanoma A2058 cell subcutaneous xenograft tumor model; settings: azvudine 1 mg/kg, dacarbazine 60 mg/kg, combination 1 + 60 mg/kg
Experimental: Human melanoma cells A2058 (Cat. No.: CRL-11147) were cultured in vitro as a monolayer in DMEM medium containing 10% fetal bovine serum, 100 U/mL penicillin and 100 μg/mL streptomycin, in a 37° C. and 5% CO2 incubator. The cells were routinely digested with trypsin-EDTA and passaged twice a week. When the cell saturation reached 80%-90% and the cell number achieved the requirement, the cells were collected, counted and inoculated.
0.2 mL (5×10^6) of A2058 cells were added with Matrigel, and the mixture was subcutaneously inoculated on the right back of each mouse. The grouping administration was started when the average tumor volume reached about 136 mm^3.

[4] = tested on: Daudi xenograft tumor model; test: Human Burkitt's lymphoma cell Daudi subcutaneous xenograft tumor model; settings: combination 1 + 50 mg/kg; for Tumor volume (mm^3) on the 27th day: CB 17 SCID mice, QD x 4 weeks, azvudine 1 mg/kg p.o., cyclophosphamide 50 mg/kg i.p.
Experimental: as §1, with “Burkitt's lymphoma” for “acute lymphoblastic leukemia”, “Daudi” for “MOLT4”, “DSMZ-ACC129)” for “ECACC-85011413)”, “serum, 2 mM glutamine,” for “serum,”
0.2 mL (10×10^6) of Daudi cells (added with Matrigel at a volume ratio of 1:1) were subcutaneously inoculated on the right back of each mouse. The grouping administration was started when the average tumor volume reached about 100 mm^3.
The changes of tumor volume and tumor weight in each group after administration of test drugs for treating CB 17 SCID mice with Daudi cell subcutaneous xenograft tumor are shown in Table 8 and Table 9 respectively.

[5] = 28th day after start of administration, azvudine 1 mg/kg
[6] = based on tumor volume, 28th day, azvudine 2 mg/kg in Table 10, cyclophosphamide 50 mg/kg, combination 1 + 50 mg/kg
[7] = based on tumor volume, 14th day
[8] = based on tumor volume, 27th day, azvudine 1 mg/kg, cyclophosphamide 50 mg/kg

[N-]=[N+]=N[C@]1(CO)O[C@@H](n2ccc(N)nc2=O)[C@@H](F)[C@@H]1O [Azvudine, azvudine]
T/C [1, 5]: 33.89 | TGI [1, 5]: 69.73% | Tumor volume [1, 5]: 979 mm^3 | Tumor volume (mm^3) on the 28th day ([1]; 28th day of administration, SCID Beige mice, QD x 4 weeks, azvudine 2 mg/kg in Table 10, cyclophosphamide 50 mg/kg i.p., combination 1 + 50 mg/kg): 986 ± 179 mm^3 | Tumor weight (g) (On the 28th day) ([1]; 28th day of administration, azvudine 1 mg/kg, cyclophosphamide 50 mg/kg, combination 1 + 50 mg/kg): 1.168 ± 0.145 g | T/C (%) [1, 6]: 33.55% | TGI (%) [1, 6]: 69.49% | T/Cweight (%) ([1]; based on tumor weight, 28th day, azvudine 1 mg/kg, cyclophosphamide 50 mg/kg, combination 1 + 50 mg/kg): 39.31% | T/C (%) ([2]; 34th day after grouping): 81.91% | TGI (%) ([2]; 34th day after grouping): 18.09% | Tumor volume (x ± S) ([2]; 34th day after grouping): 460.67 ± 105.37(6) | average tumor volume ([2]; 34th day of administration): 460.67 mm^3 | Tumor volume (mm^3) on the 14th day ([3]; 14th day of administration, listed as azvudine): 2253 mm^3 | T/C (%) [3, 7]: 79.67% | TGI (%) [3, 7]: 18.22% | Tumor volume (mm^3) on the 27th day ([4]; 27th day of administration): 909 ± 120 mm^3 | Tumor volume (mm^3) on the 27th day ([4]; 27th day of administration, listed as azvudine): 909 mm^3 | Tumor weight (g) (On the 27th day) ([4]; 27th day of administration, azvudine 1 mg/kg, cyclophosphamide 50 mg/kg): 0.996 ± 0.143 g | T/C (%) [4, 8]: 30.64% | TGI (%) [4, 8]: 71.09% | T/Cweight (%) ([4]; based on tumor weight, 27th day, azvudine 1 mg/kg, cyclophosphamide 50 mg/kg): 33.38%
